Results reported in patent US11241430B2, “Solid forms of 2-(tert-butylamino)-4-((1R,3R,4R)-3-hydroxy-4-methylcyclohexylamino)-pyrimidine-5-carboxamide, compositions thereof and methods of their use” (Signal Pharmaceuticals, LLC, priority 2014, dated 2022).
In brackets after ≈: the same amount, converted by molar mass.

Experiments:
[1] = Moisture sorption/desorption (hygroscopicity) by DVS; format: physicochemical
Method: Hygroscopicity was determined on a Surface Measurement Systems DVS. Typically a sample size of 5-20 mg was loaded into the DVS instrument sample pan and the sample was analyzed on a DVS automated sorption analyzer at room temperature. The relative humidity was increased from 0% to 90% RH at 10% RH step, then at 95% RH. The relative humidity was then decreased in a similar manner to accomplish a full adsorption/desorption cycle.
The moisture sorption/desorption behavior of Form A was determined by DVS.

Water uptake on storage = format: physicochemical
[2] = Compression test of Form A; format: physicochemical; settings: 2000-psi pressure for about 1 minute
Source text: The stability of Form A was further characterized by compression test and form transfer experiments.

physchem = settings: 25 °C, thermodynamic from solid
[3] = Slurry experiments of Form H in water/DMSO (form map)
Method: The effect of temperature (22° C.-70° C.) and water compositions in DMSO (50%-88%) on the stability of Form A and Form H of Compound 1 is mapped out in Table 6 and FIG. 45.

[4] = Form conversion experiments: heating of solvated forms; format: physicochemical
Method: (§1) Further form conversion experiments were performed to determine interconversion among solid forms. The solvated forms were isothermally held at 150° C. for 5 min and the resulted solids were consistent with Form A. All aqueous slurries also afforded Form A.

[5] = Form conversion experiments: slurry in water; format: physicochemical; settings: RT, 5 days
Method: as §1

What does the source list for `C[C@@H]1CC[C@@H](Nc2nc(NC(C)(C)C)ncc2C(N)=O)C[C@H]1O` [Form A, 2-(tert-butylamino)-4-((1R,3R,4R)-3-hydroxy-4-methylcyclohexylamino)-pyrimidine-5-carboxamide]?
XRPD diffractogram after adsorption/desorption cycles ([1]; after DVS cycle 0-95% RH): no change; DVS water uptake ([1]; at 80% RH (Table 5)): 1.0 wt % at; steep mass change (DVS) ([1]; between 0 and 10% RH, room temperature): 1.3%; total mass change (DVS) ([1]; between 0 and 95% RH, room temperature): 2.3%; DVS water uptake ([1]; from 0 to 95% RH (Table 5)): 1.2 wt % water; water uptake at room temperature (Water uptake on storage; room temperature): relatively slow water uptake; water absorbed after storage (Water uptake on storage; storage at 40° C./75% RH for 7 months): up to 3%; solid form after compression (XRPD) [2]: still Form A; solubility at 24 h (physchem; pH 4.5, aqueous buffer): 289 µg/mL (≈ 899 µM); solubility at 24 h (physchem): 38 µg/mL (≈ 118 µM); form stability in water/DMSO ([3]; 22° C., 70-88% water in DMSO): remained as Form A; thermodynamic stability in water/DMSO ([3]; water rich water/DMSO mixture (>70%), 22° C.-70° C.): thermodynamically stable form

With `C[C@@H]1CC[C@@H](Nc2nc(NC(C)(C)C)ncc2C(N)=O)C[C@H]1O` [Form B, 2-(tert-butylamino)-4-((1R,3R,4R)-3-hydroxy-4-methylcyclohexylamino)-pyrimidine-5-carboxamide] as the compound, how does the “solid form after heating above the desolvation temperature” value ([4]; form transfer experiment, heating above the desolvation temperature) read?
Its value is “Form A”.

And the “XRPD Result (solid form after slurry in water)” value [5]?
The value was “Form A”.

With `C[C@@H]1CC[C@@H](Nc2nc(NC(C)(C)C)ncc2C(N)=O)C[C@H]1O` [Form D, 2-(tert-butylamino)-4-((1R,3R,4R)-3-hydroxy-4-methylcyclohexylamino)-pyrimidine-5-carboxamide] as the compound, how does the “XRPD Result (solid form after heating)” value ([4]; Heating, isothermal hold at 150° C. for 5 min) read?
The value was “Form A”.

With `C[C@@H]1CC[C@@H](Nc2nc(NC(C)(C)C)ncc2C(N)=O)C[C@H]1O` [Form H, 2-(tert-butylamino)-4-((1R,3R,4R)-3-hydroxy-4-methylcyclohexylamino)-pyrimidine-5-carboxamide] as the compound, how does the “Stable Polymorph Form after slurry of Form H” value ([3]; 50% water in DMSO, 22° C.) read?
The value was “A/H”.

And the “Stable Polymorph Form after slurry of Form H” value ([3]; 60% water in DMSO, 40° C.)?
The value was “A/H”.
